Data: patent publication US20150297738A1, “CONJUGATES COMPRISING HYDROXYALKYL STARCH AND A CYTOTOXIC AGENT AND PROCESS FOR THEIR PREPARATION” (Fresenius Kabi Deutschland GmbH, priority 2010, published 2015)
Marks after values point to notes of the source that are not given here.

Experiments:
Format in all cases: in vivo, NMRI:nu/nu mice
[1] = Body weight change as sign of toxicity in tumor-bearing mice (docetaxel/paclitaxel studies; MT-3, PC3, A549 models)
Procedure: (§1) Tumor growth inhibition was used as therapeutic parameter. Additionally, body weight change was determined as signs for toxicity (particularly, potential hematological or gastrointestinal side effects).
Individual body weights of mice were determined twice weekly and mean body weight per group was related to the initial value in percent (body weight change, BWC), see tables in appendix.
Descriptive statistics was performed on the data of body weight and tumor volume. […] Statistical evaluation was performed with the U-test of Mann and Whitney with a significance level of p≦0.05, using the Windows program […] 6.
Tables 18 to 24 summarize the results for the tested Docetaxel conjugates and the reference compound Taxotere®. […] The loss of body weight is known to be an indicator of gastro-intestinal and hepatotoxicity of the tested compound.
The tables show, inter alia, i) the tested compounds, ii) the tumor volume in mice at the day the control group was sacrificed (in cm^3), iii) the lowest value of the relative tumor volume vs. the relative tumor volume of the control group (RTV T/C) together with the day, when this optimum was reached, iv) the maximum body weight loss in mice together with the day, when this minimum was reached. The loss of body weight is known to be an indicator of gastro-intestinal and hepatotoxicity of the tested compound.

[2] = test system: human breast carcinoma MT-3; experiment: Tumor growth inhibition (RTV, T/C) in the MT-3 xenograft mouse tumor model; settings: for Tumor volume cm^3/d31: day 31; for Tumor volume cm^3/d27: day 27
[3] = test system: human lung carcinoma A549; experiment: Tumor growth inhibition (RTV, T/C) in the A549 xenograft mouse tumor model; settings: Table 21, conjugates 1 × 75 mg/kg d8, Docetaxel 5 mg/kg d8-12, i.v.
Procedure: Each measurement was carried out with a group of 8 mice. The conjugates CDc1, CDc4 and CDc5 were administered once at a dosage of 75 mg/kg body weight on day 8. Taxotere® was administered 5 times at a dosage of 5 mg/kg body weight at days 8 to 12. Median values are given.
(§2) Adult male and female immunodeficient mice NMRI:nu/nu mice (TACONIC Europe, Lille Skensved, Denmark) were used throughout the study.
(§3) The animals were randomly assigned to various experimental groups with 6 to 8 mice each. At treatment initiation the ears of the animals were marked and each cage was labeled with the cage number, study number and animal number per cage.
(§4) The tumor lines A549, PC-3 and MT3 are lines which are commonly used for testing new anticancer drugs or novel therapeutic therapies. A549, PC-3 and MT3 xenografts are growing relatively fast and uniform.
(§5) Tumor cells were thawed and grown under in vitro conditions. […]
as §1
(§6) Tumor diameters were measured twice weekly with a caliper. Tumor volumes were calculated according to V=(length×(width)^2)/2. […] At each measurement day the median and mean tumor volumes per group and also the treated to control (T/C) values in percent were calculated. […]

[4] = test system: human prostate carcinoma PC3; experiment: Tumor growth inhibition (RTV, T/C) in the PC3 xenograft mouse tumor model; settings: Table 20; conjugates 1 × 75 mg/kg d6, Docetaxel 5 mg/kg d6-10; i.v.
Procedure: Each measurement was carried out with a group of 8 mice. The conjugates CDc1, CDc4 and CDc5 were administered once at a dosage of 75 mg/kg body weight on day 6. Taxotere® was administered 5 times at a dosage of 5 mg/kg body weight at days 6 to 10. Median values are given.
as §2, §3, §4, §5, §1, §6

[5] = Body weight change as sign of toxicity in mice bearing ASPC-1 xenografts (gemcitabine study); settings: Table 27, ASPC-1; 60 mg/kg/inj., treatment d 7, 15, 21; day in parentheses
Procedure: as §1
Individual body weights of mice were determined twice weekly and mean body weight per group was related to the initial value in percent (body weight change, BWC).
Descriptive statistics were performed on the data of body weight and tumor volume. […] Statistical evaluation was performed with the U-test of Mann and Whitney with a significance level of p≦0.05, using the Windows program […] 6.

[6] = test system: human pancreas carcinoma ASPC-1; experiment: Tumor growth inhibition (RTV, T/C) in the ASPC-1 s.c. xenotransplantation model; settings: Table 27, ASPC-1; day 27; 60 mg/kg/inj., treatment d 7, 15, 21
Excerpt: At treatment initiation the ears of the animals were marked and each cage was labeled with the cage number, study number and animal number per cage.
The human pancreas carcinoma ASPC-1 was used as s.c. xenotransplantation model in immunodeficient female NMRI:nu/nu mice.
They were thawed, expanded in vitro and transplanted as cell suspension subcutaneously (s.c.) in female NMRI:nu/nu mice. The tumor line ASPC-1 is used for testing new anticancer drugs or novel therapeutic strategies. It was therefore selected for this study.
For experimental use 10^7 tumor cells/mouse from the in vitro passage were transplanted s.c. into the flank of each of 10 mice/group at day 0.
At palpable tumor size (30-100 mm^3) treatment started. The application volume was 0.2 ml/20 g mouse body weight. The test compounds, the vehicle controls and the reference compounds were all given intravenously (i.v.).
as §1
Tumor diameters were measured twice weekly with a caliper. Tumor volumes were calculated according to V=(length×(width)^2)/2. For calculation of the relative tumor volume (RTV) the tumor volumes at each measurement day were related to the day of first treatment. […]

[7] = Table 23, conjugates 1 × 75 mg/kg d7, Docetaxel 5 mg/kg d7-11, i.v.
[8] = Table 25, MT-3, 12.5 mg/kg/inj. d 7-9, 10 mg/kg/inj. d 10-11

## CC(=O)O[C@@]12CO[C@@H]1C[C@H](O)[C@@]1(C)C(=O)[C@H](O)C3=C(C)[C@@H](OC(=O)[C@H](O)[C@@H](NC(=O)OC(C)(C)C)c4ccccc4)C[C@@](O)([C@@H](OC(=O)c4ccccc4)[C@H]21)C3(C)C [Docetaxel, docetaxel]
[1]; Table 18, MT-3 model, conjugates 1 × 100 mg/kg d7, Docetaxel 10 mg/kg d7, 9, 11, i.v., 8 mice per group
  Toxic deaths (at day): 4
[1]; Table 23, MT-3 model, conjugates 1 × 75 mg/kg d7, Docetaxel 5 mg/kg d7-11, i.v.
  Toxic death (at day): 0
[1]; mouse, in vivo, 5 mg/kg
  BWC [%] (at day): −11%
[2]; Table 18, conjugates 1 × 100 mg/kg d7, Docetaxel 10 mg/kg d7, 9, 11, i.v.
  Tumor volume cm^3/d31: 0.18 +/− 0.10 cm^3
[2]; Table 18, lowest RTV vs control, conjugates 1 × 100 mg/kg d7, Docetaxel 10 mg/kg d7, 9, 11, i.v.
  RTV T/C (%) Optimum (at day): 10.7%
[2]; Table 19, conjugates 1 × 75 mg/kg d11, Docetaxel 5 mg/kg d11-15, i.v.
  RTV T/C (%) Optimum (at day): 54.0%
[2]; Table 19, day 26, conjugates 1 × 75 mg/kg d11, Docetaxel 5 mg/kg d11-15, i.v.
  Tumor volume cm^3/d26: 0.815 +/− 0.383* cm^3
[2]; Table 22, conjugates 1 × 75 mg/kg d11, Docetaxel 5 mg/kg d11-15, i.v.
  RTV T/C (%) Optimum (at day): 31.8%
[2]; Table 22, day 25, conjugates 1 × 75 mg/kg d11, Docetaxel 5 mg/kg d11-15, i.v.
  Tumor volume cm3/d25: 0.517 +/− 0.202* cm3
[2]; [7]
  RTV T/C (%) Optimum (at day): 43.0%
  Tumor volume cm^3/d27: 0.873 +/− 0.390* cm^3
[2]; Table 24, MT-3, 5 mg/kg/inj., treatment d 8-12, day of optimum in parentheses below
  RTV T/C (%) Optimum (at day): 23.1%
[2]; Table 24, MT-3, 5 mg/kg/inj., treatment d 8-12
  Tumor volume cm^3/d27: 0.542 +/− 0.353* cm^3
[3]
  RTV T/C (%) Optimum (at day): 32.3%
[3]; day 42
  Tumor volume cm^3/d42: 0.334 +/− 0.207* cm^3
[4]
  RTV T/C (%) Optimum (at day): 2.6%

## Nc1ccn([C@@H]2O[C@H](CO)[C@@H](O)C2(F)F)c(=O)n1 [Gemcitabine, gemcitabine]
[5]
  [%] (at day) [head truncated; BWC]: −2.4 (9) %
[6]
  d27 [head truncated; T/C in percent]: 53.3%

## CC(=O)O[C@H]1C(=O)[C@@]2(C)[C@H]([C@H](OC(=O)c3ccccc3)[C@]3(O)C[C@H](OC(=O)[C@H](O)[C@@H](NC(=O)c4ccccc4)c4ccccc4)C(C)=C1C3(C)C)[C@]1(OC(C)=O)CO[C@@H]1C[C@@H]2O [Paclitaxel, paclitaxel]
[1]; Table 25, MT-3 model, 12.5 mg/kg/inj. d 7-9, 10 mg/kg/inj. d 10-11
  BWC [%] (at day): −15%
[1]; Table 25, MT-3 model, 12.5 mg/kg/inj. d 7-9, 10 mg/kg/inj. d 10-11, number of mice
  Toxic deaths (at day): 1
[1]; Table 26, MT-3 model, 10 mg/kg/inj., treatment d 10-14
  BWC [%] (at day): −18%
[1]; Table 26, MT-3 model, 10 mg/kg/inj., treatment d 10-14, number of mice
  Toxic deaths (at day): 0
[2]; [8]
  RTV T/C (%) Optimum (at day): 21.5%
  Tumor volume cm^3/d31: 0.41 +/− 0.21* cm^3
[2]; Table 26, MT-3, 10 mg/kg/inj., treatment d 10-14
  Tumor volume cm^3/d31: 0.673 +/− 0.226* cm^3
